# How the values were obtained:
# Angiotensin II Receptor = molecular target: T1, Angiotensin II Receptor (Bos taurus, UniProt P25104); assay: Receptor Binding Assay: Binding of [^125 I](Sar^1,Ile^8)AngII to beef adrenal cortex membranes; details: 60 min, room temperature
# T1 construct: The brownish tissue forming the adrenal cortex is scraped off and finely minced with scissors before homogenization; from tissue; host or cells: beef adrenal cortex, microsomal membranes (100,000×g pellet); fresh glands from a local slaughter house (Maxwell-Cohen)
# T1 sequence (P25104 1-359): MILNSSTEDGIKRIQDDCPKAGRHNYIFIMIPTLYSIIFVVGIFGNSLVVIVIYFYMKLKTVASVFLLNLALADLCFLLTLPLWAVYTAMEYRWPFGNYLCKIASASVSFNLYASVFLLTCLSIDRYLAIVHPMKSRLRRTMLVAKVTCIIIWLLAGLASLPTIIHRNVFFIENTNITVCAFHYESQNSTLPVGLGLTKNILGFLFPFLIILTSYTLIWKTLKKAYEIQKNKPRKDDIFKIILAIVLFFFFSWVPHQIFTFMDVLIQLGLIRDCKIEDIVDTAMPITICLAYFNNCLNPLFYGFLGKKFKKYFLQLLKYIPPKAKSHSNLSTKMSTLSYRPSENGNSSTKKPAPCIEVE
# Source text: Beef adrenals are obtained from a local slaughter house (Maxwell-Cohen). [^125 […]. 2200 Ci/mmole, is purchased from Dupont (NEN®, Boston, Mass.). All unlabeled AngII analogs, Dimethylsulfoxide (DMSO), nucleotides, bovine serum albumin (BSA) are purchased from Sigma Chemical Co., St. Louis, Mo. U.S.A. […] Approximately sixteen (16) to twenty (20) beef adrenal glands are processed as follows: fresh adrenal glands received on crushed ice are cleaned of fatty tissues and the tough membranes encapsulating the glands are removed and discarded. The brownish tissue forming the adrenal cortex is scraped off and finely minced with scissors before homogenization. Care is taken to avoid contamination with medullary tissue during dissection. The scraped cortices are suspended in twenty volumes of an ice-cold buffer medium consisting of 10 mM Tris.HCl (pH 7.4 at 22° C.) and containing 1.0 mM EDTA and 0.2M sucrose. Unless otherwise indicated, all subsequent operations are done at 4° C. […] The homogenate is centrifuged first at low speed (3,000×g) for 10 minutes. […] This P2 pellet is discarded and the liquid phase is carefully decanted off in clean centrifuge tubes and recentrifuged at high speed (100,000×g) for 60 minutes. The translucent final pellet is harvested and combined in a small volume (20-50.0 ml) of 50.0 mM Tris.HCl buffer, pH 7.2. A 100 ul aliquot is withdrawn and the protein content of the preparation is determined by the Lowry's method (Lowry, O. H., Rosebrough, […]. and Randall, R. J., Protein measurement with Folin phenol reagent. J. Biol. Chem., […], 265-275, 1951). The pelleted membrane is reconstituted in 50.0 mM Tris.HCl buffer containing 0.1 mM of phenylmethylsulfonyl fluoride (PMSF) to give approximately a protein concentration of 2.5 mg per ml of tissue suspension. […] Receptor Binding Assay: […] In competition studies, experimental compounds are diluted in dimethylsulfoxide (DMSO) and added in 20 ul to wells before the introduction of tissue membranes. […] Assays are performed in triplicate. The wells are left undisturbed for 60 minutes at room temperature. Following incubation, all wells are harvested at once with a Brandel® Harvester especially designed for a 96 well plate (Brandel® Biomedical Research & Development Labs. Inc., Gaithersburg, Md., U.S.A.). The filter discs are washed with 10×1.0 ml of cold 0.9% NaCl to remove unbound ligand. Presoaking the filter sheet in 0.1% polyethyleneimine in normal saline (PEI/Saline) greatly reduces the radioactivity retained by the filter blanks. This method is routinely used. The filters are removed from the filter grid and counted in a Parkard® Cobra Gamma Counter for 1 minutes. (Packard Instrument Co., Downers Grove, Ill, U.S.A.). The binding data are analyzed by the non-linear interactive "LUNDON-1" program (LUNDON SOFTWARE Inc., Cleveland, Ohio U.S.A.).
# [1] = system: ANGIOTENSIN II VASOPRESSOR RESPONSE; assay: AII Challenge: blockade of angiotensin II vasopressor response in conscious SHR; type: in vivo, rat (Conscious Male Okamoto-Aoki SHR); details: SHR n=2, 10 mg/kg i.v.
# Source text: By administering a compound of this invention to a rat, and then challenging with angiotensin II, a blockage of the vasopressor response is realized.
# Conscious Male Okamoto-Aoki SHR, 16-20 weeks old, weighing approximately 330 g are purchased from Charles River Labs (Wilmington, Mass.). Conscious rats are restrained in a supine position with elastic tape. The area at the base of the tail is locally anesthetized by subcutaneous infiltration with 2% procaine. The ventral caudal artery and vein are isolated, and a cannula made of polyethylene (PE) 10-20 tubing (fused together by heat) is passed into the lower abdominal aorta and vena cava, respectively. The cannula is secured, heparinized (1,000 I.U./ml), sealed and the wound is closed. The animals are placed in plastic restraining cages in an upright position. The cannula is attached to a Statham P23Db pressure transducer, and pulsatile blood pressure is recorded to 10-15 minutes with a Gould Brush recorder. (Chan et al., (Drug Development Res., 18:75-94, 1989).
# Angiotensin II (human sequence, Sigma Chem. Co., St. Louis, MO) of 0.05 and 0.1 ug/kg i.v. is injected into all rats (predosing response). Then a test compound, vehicle or a known angiotensin II antagonist is administered i.v., i.p. or orally to each set of rats. The two doses of angiotensin II are given to each rat again at 30, 60, 90, 120, 180, 240 and 300 minutes post dosing the compound or vehicle. The vasopressor response of angiotensin II is measured for the increase in systolic blood pressure in mmHg. The percentage of antagonism or blockade of the vasopressor response of angiotensin II by a compound is calculated using the vasopressor response (increase in systolic blood pressure) of angiotensin II of each rat predosing the compound as 100%. A compound is considered active if at 30 mg/kg i.v. it antagonized at least 50% of the response.
# [2] = AII 0.05 mcg/kg IV, 30 min post dose
# [3] = AII 0.05 mcg/kg IV, 60 min post dose
# [4] = AII 0.05 mcg/kg IV, 90 min post dose
# [5] = AII 0.05 mcg/kg IV, 120 min post dose
# [6] = AII 0.05 mcg/kg IV, 180 min post dose
# [7] = AII 0.05 mcg/kg IV, 240 min post dose
# [8] = AII 0.05 mcg/kg IV, 300 min post dose
# [9] = AII 0.1 mcg/kg IV, 30 min post dose
# [10] = AII 0.1 mcg/kg IV, 60 min post dose
# [11] = AII 0.1 mcg/kg IV, 90 min post dose
# [12] = AII 0.1 mcg/kg IV, 120 min post dose
# [13] = AII 0.1 mcg/kg IV, 180 min post dose
# [14] = AII 0.1 mcg/kg IV, 240 min post dose
# [15] = AII 0.1 mcg/kg IV, 300 min post dose
structure (smiles),measurement,setting,value
"CCCCc1nc2ccc(C(C)(O)C3CCCN(C)C3=O)cc2c(=O)n1Cc1ccc(-c2ccccc2-c2nn[nH]n2)cc1 (single isomer, unassigned; isomer 1) [Example 52, 2-Butyl-6-[1-hydroxy(1-methyl-2-oxo-3-piperidinyl)ethyl]-3-[[2'-(1H-tetrazol-5-yl)-[1,1'-biphenyl]-4-yl]methyl]-4(3H)-quinazolinone, isomer 1]",IC50,Angiotensin II Receptor,0.062 µM
same,% Inhibition of AII vasopressor response,[1]; [2],71%
same,Average Change (systolic blood pressure response to AII),[1]; [2],12.5 mmHg
same,% Inhibition of AII vasopressor response,[1]; [3],94%
same,Average Change (systolic blood pressure response to AII),[1]; [3],2.5 mmHg
same,% Inhibition of AII vasopressor response,[1]; [4],76%
same,Average Change (systolic blood pressure response to AII),[1]; [4],10 mmHg
same,% Inhibition of AII vasopressor response,[1]; [5],59%
same,Average Change (systolic blood pressure response to AII),[1]; [5],17.5 mmHg
same,% Inhibition of AII vasopressor response,[1]; [6],47%
same,Average Change (systolic blood pressure response to AII),[1]; [6],22.5 mmHg
same,% Inhibition of AII vasopressor response,[1]; [7],29%
same,Average Change (systolic blood pressure response to AII),[1]; [7],30 mmHg
same,% Inhibition of AII vasopressor response,[1]; [8],47%
same,Average Change (systolic blood pressure response to AII),[1]; [8],22.5 mmHg
same,% Inhibition of AII vasopressor response,[1]; [9],85%
same,Average Change (systolic blood pressure response to AII),[1]; [9],7.5 mmHg
same,% Inhibition of AII vasopressor response,[1]; [10],90%
same,Average Change (systolic blood pressure response to AII),[1]; [10],5 mmHg
same,% Inhibition of AII vasopressor response,[1]; [11],70%
same,Average Change (systolic blood pressure response to AII),[1]; [11],15 mmHg
same,% Inhibition of AII vasopressor response,[1]; [12],80%
same,Average Change (systolic blood pressure response to AII),[1]; [12],10 mmHg
same,% Inhibition of AII vasopressor response,[1]; [13],55%
same,Average Change (systolic blood pressure response to AII),[1]; [13],22.5 mmHg
same,% Inhibition of AII vasopressor response,[1]; [14],45%
same,Average Change (systolic blood pressure response to AII),[1]; [14],27.5 mmHg
same,% Inhibition of AII vasopressor response,[1]; [15],45%
same,Average Change (systolic blood pressure response to AII),[1]; [15],27.5 mmHg

# From patent publication US5288720A, “Angiotensin II receptor blocking 2,3,6 substituted quinazolinones” (American Cyanamid Company, priority 1993, dated 1994)
